Patent publication US20070148193A1, “Lutein concentrate” (AQUANOVA GERMAN SOLUBILISATE TECHNOLOGIES (AGT) GM, priority 2003, published 2007)

Key:
[1] = cited from earlier work
[2] = tested on: LDL (low-density lipoprotein); test: oxidation resistance of LDL (study by Milde and Elstner); format: biochemical; details: lutein as a powder or dissolved in ethanol vs. solubilizate
Text: A study by J. Milde and E. F. Elstner (Technical University of Munich) has shown that lutein has no effect on the oxidation resistance of LDL (low-density lipoprotein) as a powder or dissolved in ethanol. […] The micellated lutein from the solubilizate is enriched in the LDL by a factor of 9 more (10 mole lutein/mole LDL).

## lutein ester
[1]
  solubility in water (background statement): practically insoluble in water

## CC1=C[C@H](O)CC(C)(C)[C@H]1/C=C/C(C)=C/C=C/C(C)=C/C=C/C=C(C)/C=C/C=C(C)/C=C/C1=C(C)C[C@@H](O)CC1(C)C [lutein]
[2]
  effect on the oxidation resistance of LDL: no effect
[1]
  solubility in water (background statement): practically insoluble in water
